# Biological target: T1, HPK1 (Homo sapiens, UniProt Q92918)
# T1 construct: purchased Invitrogen
# Test: HPK1 biochemical enzyme assay (microfluidic mobility shift assay)
# Conditions: 1000 uM (1 mM) ATP; Caliper mobility shift; 1.5 nM HPK1; 30 min preincubation; read-out: HPK1 1000UMATP caliper IC50
# In short: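 Microfluidic mobility-shift readout with 1.5 nM HPK1 in pH 7.4 buffer; compounds (ten-point curves, top 3 μM final) preincubated 30 min with enzyme/substrate. Reaction started with 1 mM ATP and 1 μM substrate plus 5 mM MgCl2, run 60 min at RT. IC50 values binned into activity classes.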
# T1 sequence (Q92918 whole entry): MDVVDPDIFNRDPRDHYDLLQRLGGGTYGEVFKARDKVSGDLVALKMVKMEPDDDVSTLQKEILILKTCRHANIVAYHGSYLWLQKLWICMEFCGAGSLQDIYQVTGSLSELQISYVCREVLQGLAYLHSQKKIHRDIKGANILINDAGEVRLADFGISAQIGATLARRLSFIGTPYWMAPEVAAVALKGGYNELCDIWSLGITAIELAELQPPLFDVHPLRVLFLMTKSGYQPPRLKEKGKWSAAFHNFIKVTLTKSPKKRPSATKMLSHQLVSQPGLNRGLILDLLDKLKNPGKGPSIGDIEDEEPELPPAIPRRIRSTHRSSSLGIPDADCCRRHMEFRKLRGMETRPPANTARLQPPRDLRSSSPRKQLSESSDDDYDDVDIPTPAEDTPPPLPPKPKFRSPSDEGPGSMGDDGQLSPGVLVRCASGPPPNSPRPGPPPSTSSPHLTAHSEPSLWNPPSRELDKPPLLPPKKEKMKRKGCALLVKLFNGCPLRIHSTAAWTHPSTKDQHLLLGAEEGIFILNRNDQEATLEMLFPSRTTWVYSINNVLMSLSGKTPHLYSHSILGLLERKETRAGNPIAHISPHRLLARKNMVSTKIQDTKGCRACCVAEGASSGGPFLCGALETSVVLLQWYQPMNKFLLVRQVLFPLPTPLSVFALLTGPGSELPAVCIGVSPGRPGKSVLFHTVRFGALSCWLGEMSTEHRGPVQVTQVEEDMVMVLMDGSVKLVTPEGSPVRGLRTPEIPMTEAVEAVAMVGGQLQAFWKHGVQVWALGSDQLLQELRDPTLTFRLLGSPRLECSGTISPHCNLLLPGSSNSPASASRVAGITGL
row,SMILES,IC50
1,"O=c1[nH]ccc2nc(-c3cc(CN4CC5(CCCO5)C4)ccc3F)cc(Nc3ccc(N4CCC(O)CC4)cn3)c12 [I-255, 2-[2-fluoro-5-(5-oxa-2-azaspiro [3.4]octan-2-ylmethyl)phenyl]-4-[[5-(4-hydroxy-1-piperidyl)-2-pyridyl]amino]-6H-1,6-naphthyridin-5-one]",> 1000 nM
2,"O=c1[nH]ccc2nc(-c3cc(CN4CC5(CCOC5)C4)ccc3F)cc(Nc3ccc(N4CCC(O)CC4)cn3)c12 [I-256, 2-[2-fluoro-5-(6-oxa-2-azaspiro [3.4]octan-2-ylmethyl)phenyl]-4-[[5-(4-hydroxy-1-piperidyl)-2-pyridyl]amino]-6H-1,6-naphthyridin-5-one]",> 1000 nM
3,"O=c1[nH]ccc2nc(-c3ccc(OCc4ccncc4)cc3F)cc(Nc3cc(C4CCOC4)n[nH]3)c12 (stereo not shown) [I-257, 2-[2-fluoro-4-(4-pyridyl-methoxy)phenyl]-4-[(3-THF-3-yl-1H-pyrazol-5-yl)amino]-6H-1,6-naphthyridin-5-one]",> 1000 nM
4,"O=c1[nH]ccc2nc(-c3cc4c(cc3F)CCC4N3CC4(CCC4)C3)cc(Nc3ccc(N4CCC(O)CC4)cn3)c12 (stereo not shown) [I-258, 2-[3-(2-azaspiro [3.3]heptan-2-yl)-6-fluoro-indan-5-yl]-4-[[5-(4-hydroxy-1-piperidyl)-2-pyridyl]amino]-6H-1,6-naphthyridin-5-one]",100 to 1000 nM
5,"O=c1[nH]ccc2nc(-c3cc4c(cc3F)CCC4N3CC4(CCOC4)C3)cc(Nc3ccc(N4CCC(O)CC4)cn3)c12 (stereo not shown) [I-260, 2-[6-fluoro-3-(6-oxa-2-azaspiro [3.4]octan-2-yl)indan-5-yl]-4-[[5-(4-hydroxy-1-piperidyl)-2-pyridyl]amino]-6H-1,6-naphthyridin-5-one]",100 to 1000 nM
6,"CN1CCc2c(ccc(F)c2-c2cc(Nc3ccc(N4CCC(O)CC4)cn3)c3c(=O)[nH]ccc3n2)C1 [I-268, 2-(6-fluoro-2-methyl-3,4-dihydro-1H-isoquinolin-5-yl)-4-[[5-(4-hydroxy-1-piperidyl)-2-pyridyl]amino]-6H-1,6-naphthyridin-5-one]",> 1000 nM
7,"O=c1[nH]ccc2nc(-c3ccc(C4CCCO4)cc3F)cc(Nc3ccc(N4CCC(O)CC4)cn3)c12 (stereo not shown) [I-276, 2-(2-fluoro-4-THF-2-yl-phenyl)-4-[[5-(4-hydroxy-1-piperidyl)-2-pyridyl]amino]-6H-1,6-naphthyridin-5-one]",> 1000 nM
8,"CN1CCN(c2ccc(Nc3cc(-c4ccc(C(=O)N5CC6CCC5CC6)cc4F)nc4cc[nH]c(=O)c34)nc2)CC1 [I-278, 2-[4-(3-azabicyclo [2.2.2]octane-3-carbonyl)-2-fluoro-phenyl]-4-[[5-(4-methyl-piperazin-1-yl)-2-pyridyl]amino]-6H-1,6-naphthyridin 5-one]",100 to 1000 nM
9,"Cc1cnccc1-c1cc(Nc2ccc(N3CCC(O)CC3)cn2)c2c(=O)[nH]ccc2n1 [I-280, 4-[[5-(4-hydroxy-1-piperidyl)-2-pyridyl]amino]-2-(3-methyl-4-pyridyl)-6H-1,6-naphthyridin-5-one]",> 1000 nM
10,"O=c1[nH]ccc2nc(-c3ccnc4[nH]ccc34)cc(Nc3ccc(N4CCC(O)CC4)cn3)c12 [I-282, 4-[[5-(4-hydroxy-1-piperidyl)-2-pyridyl]amino]-2-(1H-pyrrolo [2,3-b]pyridin-4-yl)-6H-1,6-naphthyridin-5-one]",> 1000 nM
11,"Cc1c[nH]nc1-c1cc(Nc2ccc(N3CCC(O)CC3)cn2)c2c(=O)[nH]ccc2n1 [I-283, 4-[[5-(4-hydroxy-1-piperidyl)-2-pyridyl]amino]-2-(4-methyl-1H-pyrazol-3-yl)-6H-1,6-naphthyridin-5-one]",≤ 100 nM
12,"O=c1[nH]ccc2nc(-c3cnc4ccccn34)cc(Nc3ccc(N4CCC(O)CC4)cn3)c12 [I-284, 4-[[5-(4-hydroxy-1-piperidy)-2-pyridyl]amino]-2-imidazo[1,2-a]pyridin-3-yl-6H-1,6-naphthyridin-5-one]",> 1000 nM

# Other lines, results leading:
row,IC50,SMILES
1,≤ 100 nM,"CCC1(C(=O)N(C)c2ccc(-c3cc(Nc4ccc(N5CCNCC5)cn4)c4c(=O)[nH]ccc4n3)c(F)c2)CCC1 [I-247, 1-ethyl-N-[3-fluoro-4-[5-oxo-4-[(5-piperazin-1-yl-2-pyridyl)amino]-6H-1,6-naphthyridin-2-yl]phenyl]-N-methyl-cyclobutane-carboxamide]"
2,≤ 100 nM,"CC(=O)N1CCCC1c1ccc(F)c(-c2cc(Nc3ccc(N4CCC(O)CC4)cn3)c3c(=O)[nH]ccc3n2)c1 (stereo not shown) [I-248, 2-[5-(1-acetyl-pyrrolidin-2-yl)-2-fluoro-phenyl]-4-[[5-(4-hydroxy-1-piperidyl)-2-pyridyl]amino]-6H-1,6-naphthyridin-5-one]"
3,≤ 100 nM,"O=c1[nH]ccc2nc(-c3cc4c(cc3F)CCC4N3CCCCC3)cc(Nc3ccc(N4CCC(O)CC4)cn3)c12 (stereo not shown) [I-249, 2-[6-fluoro-3-(1-piperidyl)indan-5-yl]-4-[[5-(4-hydroxy-1-piperidyl)-2-pyridyl]amino]-6H-naphthyridin-5-one]"
4,≤ 100 nM,O=c1[nH]ccc2nc(-c3cc(CN4CC5(COC5)C4)ccc3F)cc(Nc3ccc(N4CCC(O)CC4)cn3)c12 [I-250]
5,≤ 100 nM,"COc1cc(-c2cc(Nc3ccc(N4CCC(O)CC4)cn3)c3c(=O)[nH]ccc3n2)c(F)cc1C(=O)N1CC2C(C1)C2(F)F (stereo not shown) [I-251, 2-[4-(6,6-difluoro-3-azabicyclo [3.1.0]hexane-3-carbonyl)-2-fluoro-5-methoxy-phenyl]-4-[[5-(4-hydroxy-1-piperidyl)-2-pyridyl]amino]-6H-1,6-naphthyridin-5-one]"
6,≤ 100 nM,"O=c1[nH]ccc2nc(-c3cc4c(cc3F)C(N3CCOCC3)CC4)cc(Nc3ccc(N4CCC(O)CC4)cn3)c12 (stereo not shown) [I-259, 2-(6-fluoro-1-morphoino-indan-5-y)-4-[[5-(4-hydroxy-1-piperidy)-2-pyridy]amino]-6H-1,6-naphthyridin-5-one]"
7,≤ 100 nM,"CNC(C)(c1ccc(F)c(-c2cc(Nc3ccc(N4CCC(O)CC4)cn3)c3c(=O)[nH]ccc3n2)c1)C(F)(F)F (stereo not shown) [I-263, 2-[2-fluoro-5-[2,2,2-trifluoro-1-methyl-1-(methyl-amino)ethyl]phenyl]-4-[[5-(4-hydroxy-1-piperidyl)-2-pyridyl]amino]-6H-1,6-naphthyridin-5-one]"
8,≤ 100 nM,"O=C(c1ccc(-c2cc(Nc3ccc(N4CCNCC4)cn3)c3c(=O)[nH]ccc3n2)c(F)c1)N1CC2CCC1CC2 [I-264, 2-[4-(3-azabicyclo [2.2.2]octane-3-carbonyl)-2-fluoro-phenyl]-4-[(5-piperazin-1-yl-2-pyridyl)amino]-6H-1,6-naphthyridin-5-one]"
9,≤ 100 nM,"O=c1[nH]ccc2nc(-c3c(F)ccc4c3CCNC4)cc(Nc3cc(C4CCOC4)n[nH]3)c12 (stereo not shown) [I-265, 2-(6-fluoro-1,2,3,4-tetrahydro-isoquinolin-5-yl)-4-[(3-THF-3-yl-1H-pyrazol-5-yl)amino]-6H-1,6-naphthyridin-5-one]"
10,≤ 100 nM,"O=C(c1cc(F)c(-c2cc(Nc3ccc(N4CCC(O)CC4)cn3)c3c(=O)[nH]ccc3n2)cc1C1CC1)N1CCCCC1 [I-270, 2-[5-cyclopropyl-2-fluoro-4-(piperidine-1-carbonyl)phenyl]-4-[[5-(4-hydroxy-1-piperidyl)-2-pyridyl]amino]-6H-naphthyridin-5-one]"
11,≤ 100 nM,"Cn1ccnc1N1CCN(c2cc(Nc3ccc(N4CCC(O)CC4)cn3)c3c(=O)[nH]ccc3n2)CC1 [I-271, 4-[[5-(4-hydroxy-1-piperidyl)-2-pyridyl]amino]-2-[4-(1-methyl-imidazol-2-yl)piperazin-1-yl]-6H-1,6-naphthyridin-5-one]"
12,≤ 100 nM,"CN1CCN(c2ccc(Nc3cc(-c4ccc(C(=O)N5CC6C(C5)C6(F)F)cc4F)nc4cc[nH]c(=O)c34)nc2)CC1 (stereo not shown) [I-279, 2-[4-(6,6-difluoro-3-azabicyclo [3.1.0]hexane-3-carbonyl)-2-fluoro-phenyl]-4-[[5-(4-methyl-piperazin-1-yl)-2-pyridyl]amino]-6H-1,6-naphthyridin-5-one]"
13,≤ 100 nM,"Cc1ccncc1-c1cc(Nc2ccc(N3CCC(O)CC3)cn2)c2c(=O)[nH]ccc2n1 [I-281, 4-[[5-(4-hydroxy-1-piperidyl)-2-pyridyl]amino]-2-(4-methyl-3-pyridyl)-6H-1,6-naphthyridin-5-one]"

# Source: patent US12252488B2 (Nimbus Saturn, Inc., priority 2021, dated 2025)
